Assay results: the supplement of paper PMC9265050, “Inhibition of RNA Binding in SND1 Increases the Levels of miR-1-3p and Sensitizes Cancer Cells to Navitoclax” (Cancers, 2022)

System: SW480
Test: drug sensitivity score (DSS, integrated dose-response area); higher = more sensitive (stronger viability reduction); extreme values may be limits of the assay
How it was run: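 SW480 cells stably carrying doxycycline-inducible control or SND1-targeting shRNA were induced with 0.1 µg/mL doxycycline for 7 days. They were then plated at 1000 cells per well in 384-well plates holding 525 commercially available small-molecule inhibitors at five concentrations. Viability was read with CellTiter-Glo after 72 h. The drug sensitivity score integrates the area under a fitted non-linear dose–response model.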

[1] = shRNA: SND1 shRNA1 (SND1 silenced)
[2] = shRNA: SND1 shRNA2 (SND1 silenced)
[3] = shRNA: control shRNA (non-targeting)

| Structure (SMILES) | drug sensitivity score [1] [DSS] | drug sensitivity score [2] [DSS] | drug sensitivity score [3] [DSS] |
| --- | --- | --- | --- |
| Cc1ccc(F)c(NC(=O)Nc2ccc(-c3cccc4[nH]nc(N)c34)cc2)c1 [Linifanib] | 0 | 0 | 0 |
| Cc1ccc(-n2nc(C(C)(C)C)cc2NC(=O)Nc2ccc(OCCN3CCOCC3)c3ccccc23)cc1 [Doramapimod] | 4.1 | 5.5 | 6 |
| O=C(Nc1ccc2[nH]nc(-c3ccncc3)c2c1)[C@@H]1CCN(CC(=O)N2CCN(c3ccc(-c4ncccn4)cc3)CC2)C1 | 14.2 | 8.8 | 7.9 |
| Cc1ccc(C(=O)Nc2ccc(Oc3cc4cnn(C)c4cc3-c3cn[nH]c3)c(F)c2)c(=O)n1-c1ccc(F)cc1 [Merestinib] | 4.5 | 5.4 | 4.3 |
| CCn1c(-c2nonc2N)nc2cnc(Oc3cccc(NC(=O)c4ccc(OCCN5CCOCC5)cc4)c3)cc21 | 4.8 | 5.2 | 5.5 |
| Cn1cc(C[C@@H](N)C(=O)O)c2ccccc21 [1-methyl-D-tryptophan] | 0 |  | 0 |
| CCCC(CCC)C(=O)O [Valproic acid] | 0 |  | 0 |
| c1ccc2c(CCNc3ccc(Nc4ccncc4)cc3)c[nH]c2c1 [Serdemetan] | 2.4 | 1 | 2.2 |
| CS(=O)(=O)OCCCCOS(C)(=O)=O [Busulfan] | 0 | 1.4 | 1.5 |
| COc1cc2c(cc1-c1c(C)noc1C)ncc1[nH]c(=O)n([C@H](C)c3ccccn3)c12 [I-BET151] | 1.4 | 0.5 | 2.4 |
| Cn1c(Nc2ccc(C(F)(F)F)cc2)nc2cc(Oc3ccnc(-c4ncc(C(F)(F)F)[nH]4)c3)ccc21 [RAF265] | 0 | 1.8 | 2 |
| CC(O)(CS(=O)(=O)c1ccc(F)cc1)C(=O)Nc1ccc(C#N)c(C(F)(F)F)c1 (stereo not given) [Bicalutamide] | 0.4 | 0.3 | 1.4 |
| Cc1nc(C(=O)NCC(=O)O)c(O)c2ccc(Oc3ccccc3)cc12 [FG-4592] | 4.8 | 1 | 2.5 |
| COc1ccc(-c2cc3c(C)nc(N)nc3n([C@H]3CC[C@H](OCCO)CC3)c2=O)cn1 | 17.3 | 13.9 | 9.3 |
| CCn1c(C(=O)N(C2CC2)C2CC2)cc2c3c(ncn3C)c(Nc3cc(C)n(C)n3)nc21 | 0 | 0 | 0 |
| Cc1cc(OCc2nnc(SC3CCCC3)n2-c2cccnc2)ccc1-c1ccc(S(C)(=O)=O)cc1 [NMS-873] | 9.5 | 10.5 | 9 |
| CC(C)[C@H](C(=O)Nc1ccc(C(=O)NO)cc1)c1ccccc1 [AR-42] | 19.6 | 12.9 | 10.9 |
| COc1cc2c(Oc3ccc4[nH]c(C)cc4c3F)ncnc2cc1OCCCN1CCCC1 [Cediranib] | 6.1 | 5.1 | 4.3 |
| Cc1c(N)nc([C@H](CC(N)=O)NC[C@H](N)C(N)=O)nc1C(=O)N[C@H](C(=O)N[C@H](C)[C@@H](O)[C@H](C)C(=O)N[C@H](C(=O)NCCc1nc(-c2nc(C(=O)NCCC[S+](C)C)cs2)cs1)[C@@H](C)O)[C@@H](OC1OC(CO)C(O)C(O)C1OC1OC(CO)C(O)C(OC(N)=O)C1O)c1cnc[nH]1 (stereo not given in full) [Bleomycin] | 4.8 | 5.4 | 4.2 |
| C=CC[C@@H]1/C=C(\C)C[C@H](C)C[C@H](OC)[C@H]2O[C@@](O)(C(=O)C(=O)N3CCCC[C@H]3C(=O)O[C@H](/C(C)=C/[C@@H]3CC[C@@H](O)[C@H](OC)C3)[C@H](C)[C@@H](O)CC1=O)[C@H](C)C[C@@H]2OC [Tacrolimus] | 0 |  | 0 |
| CN(C)CCOc1ccc(/C(=C(/CCCl)c2ccccc2)c2ccccc2)cc1 [Toremifene] | 2.6 | 1.7 | 3.1 |
| CC(=O)N(O)CCCCCNC(=O)CCC(=O)N(O)CCCCCNC(=O)CCC(=O)N(O)CCCCCN [Deferoxamine] | 8 |  | 6.1 |
| O=C(NC1CCNCC1)c1n[nH]cc1NC(=O)c1c(Cl)cccc1Cl [AT7519] | 10.7 | 9.1 | 14.4 |
| COc1ccc(C2=N[C@@H](c3ccc(Cl)cc3)[C@@H](c3ccc(Cl)cc3)N2C(=O)N2CCNC(=O)C2)c(OC(C)C)c1 [Nutlin-3] | 0 | 0 | 0.2 |
| N.N.[Cl][Pt][Cl] [Cisplatin] | 8.1 |  | 9.2 |
| CC[C@@]1(O)C(=O)OCc2c1cc1n(c2=O)Cc2cc3ccccc3nc2-1 [Camptothecin] | 18.4 | 10.3 | 12.6 |

| Structure (SMILES) | drug sensitivity score [1] [DSS] | drug sensitivity score [2] [DSS] | drug sensitivity score [3] [DSS] |
| --- | --- | --- | --- |
| CNC(=O)c1ccccc1Nc1cc(Nc2ccc(N3CCOCC3)cc2OC)ncc1C(F)(F)F [VS-4718] | 4.8 | 3.8 | 4.1 |
| Cn1cnc2c(F)c(Nc3ccc(Br)cc3F)c(C(=O)NOCCO)cc21 [Binimetinib] | 11.9 | 6.6 | 6.6 |
| CCS(=O)(=O)c1cccc(-c2cc(C(=O)NC3CCN(C)CC3)c(C)c3[nH]c4ncc(C)cc4c23)c1 [TAK-901] | 0.6 | 0 | 2.1 |
| CC/C(=C(\c1ccccc1)c1ccc(OCCN(C)C)cc1)c1ccccc1 [Tamoxifen] | 5 | 4.4 | 5.9 |
| CCCCC/C=C/C=C1/C(=O)C=C[C@@H]1C/C=C\CCCC(=O)O [15D-PGJ2] | 1.7 | 0 | 0 |
| CN(C[C@@H]1COCCO1)S(=O)(=O)Nc1ccc2ccc3ncc(-c4cnn(C)c4)cc3c(=O)c2c1 [MK-2461] | 0.6 | 0 | 0.3 |
| CO[C@@H]1[C@H](N(C)C(=O)c2ccccc2)C[C@H]2O[C@]1(C)n1c3ccccc3c3c4c(c5c6ccccc6n2c5c31)C(=O)NC4 [Midostaurin] | 14.3 | 14.7 | 14.5 |
| COc1ccccc1S(=O)(=O)Nc1ccc2c(c1)CN(C)C(=O)N2 [PFI-1] | 1.8 | 0.5 | 0.4 |
| CC(=O)Nc1ccc(C(=O)Nc2ccccc2N)cc1 [Tacedinaline] | 0 | 4.5 | 3.8 |
| OCCn1cc(-c2cnc3nnn(Cc4ccc5ncccc5c4)c3n2)cn1 | 0 | 0 | 0 |
| CNC(=O)c1ccc(N2C(=S)N(c3cnc(C#N)c(C(F)(F)F)c3)C(=O)C23CCC3)cc1F [ARN 509] | 0.7 | 0 | 0.9 |
| O=S(=O)(c1cccc2c(O)nccc12)N1CCCNCC1 [Hydroxyfasudil] | 1.6 |  | 3.5 |
| Cc1cccc(CC(=O)N2CCc3c2ccc(-c2cn(C)c4ncnc(N)c24)c3F)n1 | 0 | 3.3 | 0 |
| Cc1[nH]c2ccccc2c1CCNCc1ccc(/C=C/C(=O)NO)cc1 [Panobinostat] | 19.9 | 19.2 | 17.4 |
| Cc1csc(-c2nnc(Nc3ccc(Oc4ncccc4-c4ccnc(N)n4)cc3)c3ccccc23)c1 [AMG-900] | 5 | 0 | 1.7 |
| CN(C)/N=N/c1[nH]cnc1C(N)=O [Dacarbazine] | 0 | 1.9 | 0.7 |
| O=C(O)C1(C(=O)O)CCC1.[NH2-].[NH2-].[Pt+2] [Carboplatin] | 1 |  | 0.5 |
| COc1ccc2c(OCc3nnc4ccc(-c5ccccc5)nn34)ccnc2c1 [AMG-208] | 0 | 2 | 0.5 |
| CCNC(=O)c1noc(-c2cc(C(C)C)c(O)cc2O)c1-c1ccc(CN2CCOCC2)cc1 [Luminespib] | 15.3 | 15.4 | 15.7 |
| CN(C)Cc1c(C(=O)NCCOc2ccc(C(=O)NO)cc2)oc2ccccc12 [Abexinostat] | 21.3 | 16.4 | 19.4 |
| O=C1c2c(O)ccc(O)c2C(=O)c2c(NCCNCCO)ccc(NCCNCCO)c21 [Mitoxantrone] | 1.9 | 0.3 | 0.8 |
| CC(C)(C#N)c1cc(Cn2cncn2)cc(C(C)(C)C#N)c1 [Anastrozole] | 0 | 0 | 0 |
| O=c1sn(-c2cccc3ccccc23)c(=O)n1Cc1ccccc1 [Tideglusib] | 0.1 | 1.2 | 0.1 |
| O[C@H]1CC[C@H](Nc2ncc3nc(Nc4c(F)cc(F)cc4F)n([C@H]4CCOC4)c3n2)CC1 [Tanzisertib] | 2.9 |  | 3.4 |
| O=C(O)CC1CC(c2ccccc2)=NO1 (stereo not given) [VGX-1027] | 0.2 | 2.3 | 0 |
